Measured values reported in patent publication US11985994B2, “Sweetener and flavor compositions, methods of making and methods of use thereof” (EPC Natural Products Co., Ltd., priority 2018, dated 2024).

Legend:
Design in all cases: species or system human
[1] = Degree of kokumi of Tamarind gum solution (Example 189)
Protocol: Tamarind gum was added to pure water to prepare several Tamarind gum solutions with a concentration gradient as standard solutions for judging the degree of kokumi of the Tamarind gum solutions.
A Tamarind gum solution was prepared at a concentration of 400 ppm. Different amounts of MRP, S-MRP or TS-MRP were added to the solution such that the concentration of MRP, S-MRP or TS-MRP in the solution was 50 ppm, 75 ppm, 100 ppm, 125 ppm or 150 ppm.
(§1) Method: For evaluation of the degree of kokumi, the sample solutions (described above) were tested by a panel of four people. The panel was asked to taste the sample solutions and compare them to standard solutions (described above) to judge to which standard solution the degree of kokumi of sample solution is similar 1 trained taster tasted independently the samples first. The tester was allowed to re-taste, and then made judgment. Afterwards, another 3 tasters tasted and the judgments were discussed openly to find a suitable description. In the case that more than 1 taster disagreed with the result, the tasting was repeated.

[2] = Degree of kokumi of carrageenan solution (Example 187)
Protocol: Carrageenan was added to pure water to prepare several carrageenan solutions with a concentration gradient as standard solutions for judging the degree of kokumi of the carrageenan solutions.
A carrageenan solution was prepared at a concentration of 400 ppm. Different amounts of MRP, S-MRP or TS-MRP were added to the solution such that the concentration of MRP, S-MRP or TS-MRP in the solution was 50 ppm, 75 ppm, 100 ppm, 125 ppm or 150 ppm.
as §1, with “judge” for “judge to”, “similar to.” for “similar”, “description in” for “description. In”

[3] = Degree of kokumi of gellan gum solution (Example 188)
Protocol: Gellan gum was added to pure water to prepare several gellan gum solutions with a concentration gradient as standard solutions for judging the degree of kokumi of the gellan gum solutions.
A gellan gum solution was prepared at a concentration of 400 ppm. Different amounts of MRP, S-MRP or TS-MRP were added to the solution such that the concentration of MRP, S-MRP or TS-MRP in the solution was 50 ppm, 75 ppm, 100 ppm, 125 ppm or 150 ppm.
as §1

## Tamarind gum
[1]
  concentration above which taste like starch paste is clearly felt: exceeds 1400 ppm

## carrageenan
[2]
  concentration above which taste like starch paste is clearly felt: exceeds 1000 ppm

## gellan gum
[3]
  concentration above which taste like starch paste is clearly felt: exceeds 1400 ppm
